Reference: patent publication US20230151003A1, “COMPOUNDS AND METHODS OF USE” (Exelixis, Inc., priority 2020, published 2023)

Assays:
AXL = target: T1, AXL (Homo sapiens, UniProt P30530); test: AXL autophosphorylation ELISA in A-172 cells; type: cell-based; conditions: Table 3 Cellular Activities, Gas6-stimulated, phospho-AXL ELISA
T1 construct: endogenous in cells; host or cells: A-172 glioblastoma cells (ATCC #CRL-1620)
T1 sequence (P30530 26-894): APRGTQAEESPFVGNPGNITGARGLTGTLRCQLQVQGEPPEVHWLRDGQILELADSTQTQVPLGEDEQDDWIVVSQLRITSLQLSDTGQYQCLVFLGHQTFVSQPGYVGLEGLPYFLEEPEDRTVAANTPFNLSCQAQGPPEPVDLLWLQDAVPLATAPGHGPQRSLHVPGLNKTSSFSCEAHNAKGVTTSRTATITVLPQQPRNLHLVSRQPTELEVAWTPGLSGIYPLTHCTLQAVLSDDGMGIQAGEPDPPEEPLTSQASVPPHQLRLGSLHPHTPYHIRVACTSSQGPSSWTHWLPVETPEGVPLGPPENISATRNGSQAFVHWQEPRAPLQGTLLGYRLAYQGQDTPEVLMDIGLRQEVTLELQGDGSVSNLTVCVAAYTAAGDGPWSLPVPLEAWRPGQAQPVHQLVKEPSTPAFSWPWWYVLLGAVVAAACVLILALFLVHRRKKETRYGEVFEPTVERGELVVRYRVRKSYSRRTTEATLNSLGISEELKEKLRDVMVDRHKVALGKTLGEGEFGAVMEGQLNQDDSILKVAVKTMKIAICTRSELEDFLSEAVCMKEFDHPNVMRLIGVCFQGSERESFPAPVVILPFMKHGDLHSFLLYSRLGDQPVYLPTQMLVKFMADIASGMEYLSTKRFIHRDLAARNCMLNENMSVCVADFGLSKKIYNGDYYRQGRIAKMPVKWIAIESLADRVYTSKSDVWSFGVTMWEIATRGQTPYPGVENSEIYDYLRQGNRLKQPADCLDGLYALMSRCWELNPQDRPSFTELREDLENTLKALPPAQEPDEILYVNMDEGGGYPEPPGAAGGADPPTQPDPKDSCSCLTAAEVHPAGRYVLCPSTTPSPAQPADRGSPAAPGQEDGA
Procedure, shortened: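 A-172 glioblastoma cells serum-starved 24 h, treated 1 h with compounds (8-point dose curve, 0.3% DMSO), then stimulated with 1 μg/mL Gas6 for 15 min. Lysate phospho-AXL quantified by ELISA against a standard; IC50 from 4-parameter logistic fit, normalised to DMSO and reference-inhibitor controls.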

Met = Met (Homo sapiens, UniProt P08581); test: Met autophosphorylation ELISA in PC-3 cells; type: cell-based; set-up: endogenous in cells; host or cells: PC-3 prostate cancer cells (ATCC #CRL-1435); conditions: Table 3 Cellular Activities, HGF-stimulated, phospho-Met ELISA, read-out: c-Met IC50
Procedure, shortened: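 Serum-starved (3 h) PC-3 cells pre-incubated 1 h with compound (8-point dose curve, 0.3% DMSO), then stimulated with 100 ng/mL recombinant human HGF for 10 min. Lysate phospho-Met (panTyr) measured by sandwich ELISA; IC50 from 4-parameter logistic fit, normalised to DMSO (100%) and reference-inhibitor (0%) controls.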

Chain of Met (P08581 25-1390): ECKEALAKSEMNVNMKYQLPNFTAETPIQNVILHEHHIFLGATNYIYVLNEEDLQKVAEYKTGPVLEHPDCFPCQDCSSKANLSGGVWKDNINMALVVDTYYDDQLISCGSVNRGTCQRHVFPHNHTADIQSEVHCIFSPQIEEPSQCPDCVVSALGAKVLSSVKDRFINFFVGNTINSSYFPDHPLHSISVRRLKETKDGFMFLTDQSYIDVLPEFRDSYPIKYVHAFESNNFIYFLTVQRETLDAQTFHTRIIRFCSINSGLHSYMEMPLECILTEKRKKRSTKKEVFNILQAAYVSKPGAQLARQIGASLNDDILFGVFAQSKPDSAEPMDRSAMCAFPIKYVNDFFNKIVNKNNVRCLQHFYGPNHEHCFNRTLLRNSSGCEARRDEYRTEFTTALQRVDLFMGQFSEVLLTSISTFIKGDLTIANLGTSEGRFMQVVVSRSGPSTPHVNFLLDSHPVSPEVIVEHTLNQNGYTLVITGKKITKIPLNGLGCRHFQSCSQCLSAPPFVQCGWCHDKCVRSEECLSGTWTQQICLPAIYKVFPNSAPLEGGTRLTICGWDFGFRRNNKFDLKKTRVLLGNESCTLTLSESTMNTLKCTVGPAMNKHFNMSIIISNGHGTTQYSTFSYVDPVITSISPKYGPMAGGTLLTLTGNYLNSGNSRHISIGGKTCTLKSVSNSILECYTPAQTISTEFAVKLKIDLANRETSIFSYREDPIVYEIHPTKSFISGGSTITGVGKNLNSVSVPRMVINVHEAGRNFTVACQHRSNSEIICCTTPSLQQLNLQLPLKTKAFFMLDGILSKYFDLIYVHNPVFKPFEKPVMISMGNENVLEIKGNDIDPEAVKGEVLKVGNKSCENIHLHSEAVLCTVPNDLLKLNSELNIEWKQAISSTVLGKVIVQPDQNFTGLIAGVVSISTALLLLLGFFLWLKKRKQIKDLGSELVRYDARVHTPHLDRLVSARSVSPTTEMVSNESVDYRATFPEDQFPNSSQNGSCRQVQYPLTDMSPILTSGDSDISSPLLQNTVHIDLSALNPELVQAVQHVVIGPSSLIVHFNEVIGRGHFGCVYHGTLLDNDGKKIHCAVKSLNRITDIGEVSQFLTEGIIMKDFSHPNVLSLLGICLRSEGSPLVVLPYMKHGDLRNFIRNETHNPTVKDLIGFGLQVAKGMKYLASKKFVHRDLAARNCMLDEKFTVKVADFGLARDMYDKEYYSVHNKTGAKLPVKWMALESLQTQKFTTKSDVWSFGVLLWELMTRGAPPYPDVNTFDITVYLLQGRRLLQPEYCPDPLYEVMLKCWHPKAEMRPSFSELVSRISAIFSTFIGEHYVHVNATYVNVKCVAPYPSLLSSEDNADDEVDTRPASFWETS

IC50 (AXL) [nM]	IC50 (Met) [nM]	SMILES
≤ 100	≤ 100	COc1cnc2c(Oc3ccc(NC(=O)c4cnc(C)c(-c5ccco5)c4O)cc3F)ccnc2c1 [Compound 96, N-[3-Fluoro-4-[(7-methoxy-1,5-naphthyridin-4-yl)oxy]phenyl]-5-(2-furyl)-4-hydroxy-6-methyl-pyridine-3-carboxamide]
≤ 100	≤ 100	COc1cnc2c(Oc3ccc(NC(=O)c4cn(CCF)c(C)c(-c5cccs5)c4=O)cc3F)ccnc2c1 [Compound 331, 1-(2-Fluoroethyl)-N-[3-fluoro-4-[(7-methoxy-1,5-naphthyridin-4-yl)oxy]phenyl]-6-methyl-4-oxo-5-thiophen-2-ylpyridine-3-carboxamide]
≤ 100	≤ 100	COc1cc2nccc(Oc3ccc(NC(=O)c4c(C)nc(C)c(-c5ccc(C)o5)c4O)cc3F)c2nc1OC [Compound 110, N-[4-[(6,7-Dimethoxy-1,5-naphthyridin-4-yl)oxy]-3-fluoro-phenyl]-4-hydroxy-2,6-dimethyl-5-(5-methyl-2-furyl)pyridine-3-carboxamide]
100 to 300	100 to 300	C=C(C)c1ccc(-c2c(C)ncc(C(=O)Nc3ccc(Oc4ccnc5cc(OC)c(OC)nc45)c(F)c3)c2O)o1 [Compound 152, N-[4-[(6,7-Dimethoxy-1,5-naphthyridin-4-yl)oxy]-3-fluorophenyl]-4-hydroxy-6-methyl-5-(5-prop-1-en-2-ylfuran-2-yl)pyridine-3-carboxamide]
≤ 100	≤ 100	COc1cnc2c(Oc3ccc(NC(=O)c4c(C)n(C)c(C)c(-c5cccs5)c4=O)cc3F)ccnc2c1 [Compound 166, N-[3-Fluoro-4-[(7-methoxy-1,5-naphthyridin-4-yl)oxy]phenyl]-1,2,6-trimethyl-4-oxo-5-thiophen-2-ylpyridine-3-carboxamide]
≤ 100	≤ 100	COc1cc2nccc(Oc3ccc(NC(=O)c4c(C)nc(C)c(-c5cc(C)nn5C)c4O)cc3F)c2nc1OC [Compound 109, N-[4-[(6,7-Dimethoxy-1,5-naphthyridin-4-yl)oxy]-3-fluoro-phenyl]-5-(2,5-dimethylpyrazol-3-yl)-4-hydroxy-2,6-dimethyl-pyridine-3-carboxamide]
≤ 100	≤ 100	COc1cc2nccc(Oc3ccc(NC(=O)c4cnc(C)c(-c5sccc5C)c4O)cc3F)c2nc1OC [Compound 103, N-[4-[(6,7-Dimethoxy-1,5-naphthyridin-4-yl)oxy]-3-fluoro-phenyl]-4-hydroxy-6-methyl-5-(3-methyl-2-thienyl) pyridine-3-carboxamide]
≤ 100	≤ 100	COCc1nc(C)c(-c2ccccn2)c(O)c1C(=O)Nc1ccc(Oc2ccnc3cc(OC)c(OC)nc23)c(F)c1 [Compound 195, N-[4-[(6,7-Dimethoxy-1,5-naphthyridin-4-yl)oxy]-3-fluorophenyl]-4-hydroxy-2-(methoxymethyl)-6-methyl-5-pyridin-2-ylpyridine-3-carboxamide]
≤ 100	≤ 100	COc1cc2nccc(Oc3ccc(NC(=O)c4c(C)nc(C)c(-c5ccc(C(C)C)o5)c4O)cc3F)c2nc1OC [Compound 148, N-[4-[(6,7-Dimethoxy-1,5-naphthyridin-4-yl)oxy]-3-fluorophenyl]-4-hydroxy-2,6-dimethyl-5-(5-propan-2-ylfuran-2-yl)pyridine-3-carboxamide]
≤ 100	≤ 100	COc1cc2nccc(Oc3ccc(NC(=O)c4cnc(C)c(-c5ccc(C)o5)c4O)cc3F)c2nc1OC [Compound 92, N-[4-[(6,7-Dimethoxy-1,5-naphthyridin-4-yl)oxy]-3-fluoro-phenyl]-4-hydroxy-6-methyl-5-(5-methyl-2-furyl)pyridine-3-carboxamide]
≤ 100	≤ 100	COc1cc2nccc(Oc3ccc(NC(=O)c4cnc(C)c(-c5ccco5)c4O)cc3F)c2nc1OC [Compound 89, N-[4-[(6,7-Dimethoxy-1,5-naphthyridin-4-yl)oxy]-3-fluorophenyl]-5-(furan-2-yl)-4-hydroxy-6-methylpyridine-3-carboxamide]
≤ 100	≤ 100	COc1cc2nccc(Oc3ccc(NC(=O)c4cnc(C)c(-c5cncs5)c4O)cc3F)c2nc1OC [Compound 141, N-[4-[(6,7-Dimethoxy-1,5-naphthyridin-4-yl)oxy]-3-fluorophenyl]-4-hydroxy-6-methyl-5-(1,3-thiazol-5-yl)pyridine-3-carboxamide]
≤ 100	≤ 100	COc1cc2nccc(Oc3ccc(NC(=O)c4c(C)nc(C)c(-c5sccc5C)c4O)cc3F)c2nc1OC [Compound 139, N-[4-[(6,7-Dimethoxy-1,5-naphthyridin-4-yl)oxy]-3-fluorophenyl]-4-hydroxy-2,6-dimethyl-5-(3-methylthiophen-2-yl)pyridine-3-carboxamide]
≤ 100	≤ 100	COc1cc2nccc(Oc3ccc(NC(=O)c4c(C)ncc(-c5ccc(C)o5)c4O)cc3F)c2nc1OC [Compound 120, N-[4-[(6,7-Dimethoxy-1,5-naphthyridin-4-yl)oxy]-3-fluorophenyl]-4-hydroxy-2-methyl-5-(5-methylfuran-2-yl)pyridine-3-carboxamide]
≤ 100	≤ 100	COc1cc2nccc(Oc3ccc(NC(=O)c4cnc(C)c(-c5ccnn5C)c4O)cc3F)c2nc1OC [Compound 104]
≤ 100	≤ 100	COc1cc2nccc(Oc3ccc(NC(=O)c4c(C)ncc(-c5cc(C)cs5)c4O)cc3F)c2nc1OC [Compound 125, N-[4-[(6,7-Dimethoxy-1,5-naphthyridin-4-yl)oxy]-3-fluorophenyl]-4-hydroxy-2-methyl-5-(4-methylthiophen-2-yl)pyridine-3-carboxamide]
≤ 100	≤ 100	COCc1nc(C)c(-c2ccc(C)o2)c(O)c1C(=O)Nc1ccc(Oc2ccnc3cc(OC)c(OC)nc23)c(F)c1 [Compound 117, N-[4-[(6,7-Dimethoxy-1,5-naphthyridin-4-yl)oxy]-3-fluorophenyl]-4-hydroxy-2-(methoxymethyl)-6-methyl-5-(5-methylfuran-2-yl)pyridine-3-carboxamide]
≤ 100	≤ 100	COc1cc2nccc(Oc3ccc(NC(=O)c4c(C)ncc(-c5ccsc5)c4O)cc3F)c2nc1OC [Compound 127, N-[4-[(6,7-Dimethoxy-1,5-naphthyridin-4-yl)oxy]-3-fluorophenyl]-4-hydroxy-2-methyl-5-thiophen-3-ylpyridine-3-carboxamide]
≤ 100	≤ 100	COc1cc2nccc(Oc3ccc(NC(=O)c4c(C)n(C)c(C)c(-c5ccco5)c4=O)cc3F)c2nc1OC [Compound 160, N-[4-[(6,7-Dimethoxy-1,5-naphthyridin-4-yl)oxy]-3-fluorophenyl]-5-(furan-2-yl)-1,2,6-trimethyl-4-oxopyridine-3-carboxamide]
≤ 100	≤ 100	COc1cc2nccc(Oc3ccc(NC(=O)c4c(C)nc(C)c(-c5ccsc5)c4O)cc3F)c2nc1OC [Compound 106]
≤ 100	≤ 100	COc1cc2nccc(Oc3ccc(NC(=O)c4cn(CCF)c(C)c(-c5ccco5)c4=O)cc3F)c2nc1OC [Compound 333, N-[4-[(6,7-Dimethoxy-1,5-naphthyridin-4-yl)oxy]-3-fluorophenyl]-1-(2-fluoroethyl)-5-(furan-2-yl)-6-methyl-4-oxopyridine-3-carboxamide]
≤ 100	≤ 100	COc1cc2nccc(Oc3ccc(NC(=O)c4c(C)n(C)c(C)c(-c5ccco5)c4=O)cc3)c2nc1OC [Compound 164, N-[4-[(6,7-Dimethoxy-1,5-naphthyridin-4-yl)oxy]phenyl]-5-(furan-2-yl)-1,2,6-trimethyl-4-oxopyridine-3-carboxamide]
≤ 100	≤ 100	COc1cc2nccc(Oc3ccc(NC(=O)c4c(C)nc(C)c(-c5ccc(C6CC6)o5)c4O)cc3F)c2nc1OC [Compound 155B, 5-(5-Cyclopropylfuran-2-yl)-N-[4-[(6,7-dimethoxy-1,5-naphthyridin-4-yl)oxy]-3-fluorophenyl]-4-hydroxy-2,6-dimethylpyridine-3-carboxamide]
